# Results: article PMC3445516 (PLoS ONE, 2012)
# Read-outs that look alike come from different tables or passages of the source.
# What was measured:
# Test in all cases: Ambit kinase profiling, competition binding
# [1] = molecular target: T1, CAMKIγ (Homo sapiens, UniProt Q96NX5); settings: for competition: CAMKIγ, 10 µM
# T1 construct: purchased Ambit Biosciences (KINOMEscan)
# Method: (§1) Also included in the kinase profile are four isoforms of PKC (δ, ε, η, θ) and eight isoforms of CAMKs (CAMKIα, δ, γ; CAMKIIα, β, δ, γ; CAMK4).
# (§2) The global kinase profiling experiment was performed by Ambit Biosciences.
# [2] = molecular target: T2, CSNK1D (Homo sapiens, UniProt P48730)
# T2 construct: purchased Ambit Biosciences (KINOMEscan)
# Method: as §1, §2
# [3] = molecular target: T3, EPHA6 (Homo sapiens, UniProt Q9UF33)
# T3 construct: purchased Ambit Biosciences (KINOMEscan)
# T3 sequence (Q9UF33 23-1036): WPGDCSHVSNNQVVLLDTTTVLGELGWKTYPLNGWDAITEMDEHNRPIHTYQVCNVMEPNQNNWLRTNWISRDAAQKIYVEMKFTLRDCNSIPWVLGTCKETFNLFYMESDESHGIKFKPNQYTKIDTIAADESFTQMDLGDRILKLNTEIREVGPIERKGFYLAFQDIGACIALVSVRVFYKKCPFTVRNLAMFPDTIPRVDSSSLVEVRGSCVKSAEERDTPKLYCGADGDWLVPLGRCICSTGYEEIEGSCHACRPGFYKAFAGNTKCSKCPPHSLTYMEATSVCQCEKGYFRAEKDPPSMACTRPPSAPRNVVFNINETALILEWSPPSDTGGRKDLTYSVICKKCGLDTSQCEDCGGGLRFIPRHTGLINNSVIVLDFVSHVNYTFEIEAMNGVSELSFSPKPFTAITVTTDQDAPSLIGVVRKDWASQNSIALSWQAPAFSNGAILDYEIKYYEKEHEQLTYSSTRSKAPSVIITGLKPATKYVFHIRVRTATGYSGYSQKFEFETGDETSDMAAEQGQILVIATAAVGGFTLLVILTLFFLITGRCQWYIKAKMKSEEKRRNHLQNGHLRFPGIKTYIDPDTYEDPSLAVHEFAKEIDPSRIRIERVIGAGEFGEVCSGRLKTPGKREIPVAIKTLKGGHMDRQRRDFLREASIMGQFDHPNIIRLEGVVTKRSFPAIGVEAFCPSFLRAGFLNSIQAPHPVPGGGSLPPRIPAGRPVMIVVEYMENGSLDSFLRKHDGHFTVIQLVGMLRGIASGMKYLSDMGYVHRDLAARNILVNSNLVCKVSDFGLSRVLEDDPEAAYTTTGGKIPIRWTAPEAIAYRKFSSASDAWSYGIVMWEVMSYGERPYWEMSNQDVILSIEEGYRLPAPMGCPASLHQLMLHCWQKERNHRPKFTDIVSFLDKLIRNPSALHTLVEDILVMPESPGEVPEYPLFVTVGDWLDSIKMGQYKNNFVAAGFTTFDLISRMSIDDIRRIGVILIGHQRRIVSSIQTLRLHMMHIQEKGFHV
# Method: as §1, §2
# [4] = molecular target: T4, ERK4 (Homo sapiens, UniProt P31152)
# T4 construct: purchased Ambit Biosciences (KINOMEscan)
# Method: as §1, §2
# [5] = molecular target: T5, MST4 (Homo sapiens, UniProt Q9P289)
# T5 construct: purchased Ambit Biosciences (KINOMEscan)
# Method: as §1, §2
# [6] = molecular target: T6, PHKG2 (Homo sapiens, UniProt P15735)
# T6 construct: purchased Ambit Biosciences (KINOMEscan)
# T6 sequence (P15735 1-406): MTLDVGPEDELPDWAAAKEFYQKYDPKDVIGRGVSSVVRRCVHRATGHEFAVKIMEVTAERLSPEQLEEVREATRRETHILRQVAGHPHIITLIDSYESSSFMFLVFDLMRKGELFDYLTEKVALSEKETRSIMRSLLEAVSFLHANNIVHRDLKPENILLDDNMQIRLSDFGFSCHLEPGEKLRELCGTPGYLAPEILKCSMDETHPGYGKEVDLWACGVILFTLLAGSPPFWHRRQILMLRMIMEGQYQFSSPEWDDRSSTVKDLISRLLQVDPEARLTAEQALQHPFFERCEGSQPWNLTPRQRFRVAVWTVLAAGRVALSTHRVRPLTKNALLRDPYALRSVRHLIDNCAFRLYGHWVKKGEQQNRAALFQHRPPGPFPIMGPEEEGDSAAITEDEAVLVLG
# Method: as §1, §2
# [7] = molecular target: T7, RAF1 (Homo sapiens, UniProt P04049)
# T7 construct: purchased Ambit Biosciences (KINOMEscan)
# Method: as §1, §2
# [8] = molecular target: T8, p38-beta (Homo sapiens, UniProt Q15759)
# T8 construct: purchased Ambit Biosciences (KINOMEscan)
# Method: as §1, §2
# T2 sequence (P48730 whole entry): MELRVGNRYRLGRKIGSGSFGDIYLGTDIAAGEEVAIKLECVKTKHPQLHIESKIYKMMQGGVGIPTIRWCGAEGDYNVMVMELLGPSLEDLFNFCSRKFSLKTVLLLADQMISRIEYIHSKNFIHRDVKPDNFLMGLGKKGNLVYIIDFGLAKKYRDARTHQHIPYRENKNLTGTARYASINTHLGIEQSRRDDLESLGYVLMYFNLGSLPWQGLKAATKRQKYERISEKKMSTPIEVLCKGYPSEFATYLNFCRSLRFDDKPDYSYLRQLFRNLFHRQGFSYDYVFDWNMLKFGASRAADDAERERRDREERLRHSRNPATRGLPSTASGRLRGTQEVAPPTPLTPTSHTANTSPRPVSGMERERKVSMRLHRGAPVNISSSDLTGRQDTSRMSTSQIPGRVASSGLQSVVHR
# T5 sequence (Q9P289 whole entry): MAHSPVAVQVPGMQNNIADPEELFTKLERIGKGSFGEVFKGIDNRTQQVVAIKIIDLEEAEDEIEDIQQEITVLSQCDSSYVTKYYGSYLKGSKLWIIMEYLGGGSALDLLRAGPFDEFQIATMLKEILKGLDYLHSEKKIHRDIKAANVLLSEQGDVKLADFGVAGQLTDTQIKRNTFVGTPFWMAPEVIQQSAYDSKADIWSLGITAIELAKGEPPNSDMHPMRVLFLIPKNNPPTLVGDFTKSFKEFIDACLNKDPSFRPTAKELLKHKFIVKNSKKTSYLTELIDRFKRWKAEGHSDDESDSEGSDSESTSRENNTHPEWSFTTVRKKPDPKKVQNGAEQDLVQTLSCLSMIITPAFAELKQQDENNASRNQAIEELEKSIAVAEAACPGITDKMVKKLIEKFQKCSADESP
# T4 sequence (P31152 whole entry): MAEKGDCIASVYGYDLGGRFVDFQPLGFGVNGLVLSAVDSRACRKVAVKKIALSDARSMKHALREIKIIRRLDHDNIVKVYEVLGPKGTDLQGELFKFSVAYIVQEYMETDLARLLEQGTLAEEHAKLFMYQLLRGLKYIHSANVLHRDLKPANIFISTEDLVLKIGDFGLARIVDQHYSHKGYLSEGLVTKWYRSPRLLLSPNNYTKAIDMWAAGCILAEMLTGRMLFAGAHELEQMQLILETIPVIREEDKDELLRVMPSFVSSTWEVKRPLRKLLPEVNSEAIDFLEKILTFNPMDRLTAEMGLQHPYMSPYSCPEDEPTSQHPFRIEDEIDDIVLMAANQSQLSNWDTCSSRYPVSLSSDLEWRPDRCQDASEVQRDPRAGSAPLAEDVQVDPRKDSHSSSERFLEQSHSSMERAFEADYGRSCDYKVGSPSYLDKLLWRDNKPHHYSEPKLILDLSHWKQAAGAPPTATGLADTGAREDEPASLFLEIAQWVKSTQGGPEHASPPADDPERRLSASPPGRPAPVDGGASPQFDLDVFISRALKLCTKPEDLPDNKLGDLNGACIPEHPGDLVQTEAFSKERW
# T7 sequence (P04049 whole entry): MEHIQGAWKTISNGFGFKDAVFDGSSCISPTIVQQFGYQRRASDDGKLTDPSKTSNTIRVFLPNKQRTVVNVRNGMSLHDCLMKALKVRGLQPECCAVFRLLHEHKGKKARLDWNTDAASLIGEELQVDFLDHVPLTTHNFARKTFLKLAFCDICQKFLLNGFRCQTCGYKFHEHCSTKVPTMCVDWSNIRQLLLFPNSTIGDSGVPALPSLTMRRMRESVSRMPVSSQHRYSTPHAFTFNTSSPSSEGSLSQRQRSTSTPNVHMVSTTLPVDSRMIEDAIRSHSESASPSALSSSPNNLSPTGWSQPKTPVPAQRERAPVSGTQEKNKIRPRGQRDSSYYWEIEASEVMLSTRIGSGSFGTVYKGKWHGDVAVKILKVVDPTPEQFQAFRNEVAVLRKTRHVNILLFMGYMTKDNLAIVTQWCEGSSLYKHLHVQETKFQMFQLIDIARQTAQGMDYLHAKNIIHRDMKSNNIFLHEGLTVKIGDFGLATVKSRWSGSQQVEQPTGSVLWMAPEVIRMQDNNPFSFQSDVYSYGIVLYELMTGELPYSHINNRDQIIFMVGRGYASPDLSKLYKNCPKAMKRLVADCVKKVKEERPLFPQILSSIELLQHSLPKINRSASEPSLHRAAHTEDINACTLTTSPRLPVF
# T1 sequence (Q96NX5 whole entry): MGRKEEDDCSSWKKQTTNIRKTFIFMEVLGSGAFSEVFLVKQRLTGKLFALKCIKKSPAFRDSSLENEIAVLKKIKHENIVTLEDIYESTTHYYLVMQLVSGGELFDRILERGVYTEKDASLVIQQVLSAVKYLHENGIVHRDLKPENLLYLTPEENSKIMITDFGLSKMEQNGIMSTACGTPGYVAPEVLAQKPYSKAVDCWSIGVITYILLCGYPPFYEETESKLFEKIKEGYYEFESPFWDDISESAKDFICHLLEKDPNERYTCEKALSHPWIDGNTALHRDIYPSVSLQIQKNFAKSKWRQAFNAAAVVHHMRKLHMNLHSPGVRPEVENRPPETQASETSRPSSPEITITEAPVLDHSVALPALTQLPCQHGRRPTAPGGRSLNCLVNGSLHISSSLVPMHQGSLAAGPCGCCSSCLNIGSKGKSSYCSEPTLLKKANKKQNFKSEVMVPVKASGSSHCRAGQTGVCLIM
# T8 sequence (Q15759 whole entry): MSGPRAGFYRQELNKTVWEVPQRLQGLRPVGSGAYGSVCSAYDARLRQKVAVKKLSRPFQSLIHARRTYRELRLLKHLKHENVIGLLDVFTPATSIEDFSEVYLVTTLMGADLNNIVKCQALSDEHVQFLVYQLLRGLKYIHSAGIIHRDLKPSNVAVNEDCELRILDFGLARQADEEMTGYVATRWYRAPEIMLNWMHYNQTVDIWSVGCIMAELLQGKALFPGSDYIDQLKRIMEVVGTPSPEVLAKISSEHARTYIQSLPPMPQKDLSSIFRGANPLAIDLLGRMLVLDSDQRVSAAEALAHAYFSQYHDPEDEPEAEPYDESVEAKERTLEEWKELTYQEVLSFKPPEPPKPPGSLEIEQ
structure (smiles),measurement,setting,value
Fc1ccc(-c2c(-c3ccncc3)[nH]c3nccnc23)cc1 [Compound 122],competition,[1],< 50%
same,inhibition at 10 µM,"[2]; CSNK1D, 10 µM, read-out: % Competition",97%
same,inhibition at 10 µM,"[3]; EPHA6, 10 µM, read-out: % Competition",93%
same,inhibition at 10 µM,"[4]; ERK4, 10 µM, read-out: % Competition",68%
same,inhibition at 10 µM,"[5]; MST4, 10 µM, read-out: % Competition",97%
same,inhibition at 10 µM,"[6]; PHKG2, 10 µM, read-out: % Competition",91%
same,inhibition at 10 µM,"[7]; RAF1, 10 µM, read-out: % Competition",81%
same,inhibition at 10 µM,"[8]; 10 µM, read-out: % Competition",100%
CC(O)CNc1cc(-c2[nH]c3cccnc3c2-c2ccc(F)cc2)ccn1 (stereo not drawn) [Compound 140],competition,[1],< 50%
same,inhibition at 10 µM,[2]; read-out: % Competition,96%
same,inhibition at 10 µM,[3]; read-out: % Competition,< 50%
same,inhibition at 10 µM,[4]; read-out: % Competition,< 50%
same,inhibition at 10 µM,[5]; read-out: % Competition,< 50%
same,inhibition at 10 µM,[6]; read-out: % Competition,< 50%
same,inhibition at 10 µM,[7]; read-out: % Competition,< 50%
same,% Competition,[8]; 10 µM,100%
Fc1ccc(-c2c(-c3ccncc3)[nH]c3nccnc23)cc1 [RO1155697-000-005],inhibition at 10 µM,"[1]; CAMK1G, compound concentration 10 uM, read-out: Percent Competition",< 50%
same,inhibition at 10 µM,"[2]; CSNK1D, compound concentration 10 uM, read-out: Percent Competition",97%
same,inhibition at 10 µM,"[3]; EPHA6, compound concentration 10 uM, read-out: Percent Competition",93%
same,inhibition at 10 µM,"[4]; ERK4, compound concentration 10 uM, read-out: Percent Competition",68%
same,inhibition at 10 µM,"[5]; MST4, compound concentration 10 uM, read-out: Percent Competition",97%
same,inhibition at 10 µM,"[6]; PHKG2, compound concentration 10 uM, read-out: Percent Competition",91%
same,inhibition at 10 µM,"[7]; RAF1, compound concentration 10 uM, read-out: Percent Competition",81%
same,inhibition at 10 µM,"[8]; compound concentration 10 uM, read-out: Percent Competition",100%
